# pIC50: −log10 of the molar value.
# Target: T1, Human C5 (Homo sapiens, UniProt P01031)
# T1 construct: purchased Complement Technology
# Assay: Red blood cell (RBC) hemolysis assay, luminescent (Example 13, Table 22)
# Assay type: cell-based
# Conditions: sheep EA cells, […] C5-depleted human serum, 0.5 nM human C5, 1 hour 37° C., luminescence
# Source text: Compound CU0136 is a racemic mixture of Compound CU0186 and CU0187. Numbers in parenthesis following compound numbers indicate alternate enantiomers (as distinguished by retention time during chromatographical separation).
# T1 sequence (P01031 19-1676): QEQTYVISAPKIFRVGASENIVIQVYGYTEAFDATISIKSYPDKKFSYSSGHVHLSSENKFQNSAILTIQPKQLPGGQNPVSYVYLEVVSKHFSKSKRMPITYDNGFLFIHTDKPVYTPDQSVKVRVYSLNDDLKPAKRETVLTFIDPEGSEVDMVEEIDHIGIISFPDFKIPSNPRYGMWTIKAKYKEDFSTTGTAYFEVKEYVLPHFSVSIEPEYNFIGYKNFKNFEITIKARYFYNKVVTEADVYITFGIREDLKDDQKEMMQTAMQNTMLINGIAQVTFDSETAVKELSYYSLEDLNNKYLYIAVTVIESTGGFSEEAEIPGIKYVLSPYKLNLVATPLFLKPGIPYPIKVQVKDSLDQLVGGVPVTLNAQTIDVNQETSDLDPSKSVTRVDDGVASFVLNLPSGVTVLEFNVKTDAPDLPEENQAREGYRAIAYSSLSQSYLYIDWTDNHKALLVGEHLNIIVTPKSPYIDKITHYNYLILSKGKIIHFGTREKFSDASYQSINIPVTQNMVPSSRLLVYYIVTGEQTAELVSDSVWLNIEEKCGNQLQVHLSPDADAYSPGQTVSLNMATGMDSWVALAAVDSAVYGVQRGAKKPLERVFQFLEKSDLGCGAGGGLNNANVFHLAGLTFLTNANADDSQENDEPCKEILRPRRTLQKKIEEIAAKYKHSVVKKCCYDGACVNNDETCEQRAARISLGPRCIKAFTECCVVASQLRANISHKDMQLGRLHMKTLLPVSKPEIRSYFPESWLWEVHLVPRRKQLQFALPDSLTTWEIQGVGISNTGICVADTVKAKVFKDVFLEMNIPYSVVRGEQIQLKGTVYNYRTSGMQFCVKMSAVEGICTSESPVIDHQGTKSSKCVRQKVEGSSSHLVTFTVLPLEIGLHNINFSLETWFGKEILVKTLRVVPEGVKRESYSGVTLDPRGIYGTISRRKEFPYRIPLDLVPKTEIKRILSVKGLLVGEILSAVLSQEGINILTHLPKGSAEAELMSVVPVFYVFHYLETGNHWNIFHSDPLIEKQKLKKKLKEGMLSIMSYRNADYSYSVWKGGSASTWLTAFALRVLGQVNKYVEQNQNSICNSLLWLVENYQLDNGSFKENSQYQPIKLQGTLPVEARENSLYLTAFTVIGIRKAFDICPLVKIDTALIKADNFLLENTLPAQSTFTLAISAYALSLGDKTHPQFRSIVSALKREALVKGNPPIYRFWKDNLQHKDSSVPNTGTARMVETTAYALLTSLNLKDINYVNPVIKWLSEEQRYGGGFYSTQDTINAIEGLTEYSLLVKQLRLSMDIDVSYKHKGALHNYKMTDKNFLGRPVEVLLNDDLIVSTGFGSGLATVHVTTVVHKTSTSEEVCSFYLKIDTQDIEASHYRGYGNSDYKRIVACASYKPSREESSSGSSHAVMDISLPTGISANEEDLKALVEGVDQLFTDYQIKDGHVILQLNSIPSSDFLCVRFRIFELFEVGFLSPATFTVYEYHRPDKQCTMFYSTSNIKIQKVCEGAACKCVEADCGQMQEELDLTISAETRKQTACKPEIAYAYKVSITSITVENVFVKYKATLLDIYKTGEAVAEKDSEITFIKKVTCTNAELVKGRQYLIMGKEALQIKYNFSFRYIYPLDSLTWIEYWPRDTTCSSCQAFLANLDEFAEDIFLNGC
row,Structure (SMILES),pIC50
1,CCCCCOc1cc(N2CCCN(Cc3ccc(CC(=O)N4CCN=C(N(C)C)C4)cc3OC)C2=O)ccc1OC [CU0173],7.94
2,CCCCCOc1cc(N2CCCN(Cc3ccc(CC(=O)N4CCO[C@H](CN(C)C)C4)cc3OC)C2=O)ccc1OC (stereo in doubt) [CU0187],7.83

# Test system: not listed separately
# Assay: Kinetic solubility in PBS pH 7.4, HPLC-UV (Example 21, Table 27)
# Assay type: physicochemical
# Conditions: phosphate buffered saline, aqueous buffer, kinetic from dmso stock, 0.5 M PBS, shaken minimum 24 h at approximately 25° C., HPLC-UV 270 nm
# Protocol: Compounds were analyzed for kinetic solubility values using a standard kinetic solubility assay format. First, test compounds were dissolved in DMSO (Aldrich Chemical Co., Milwaukee, Wis., USA) at a concentration of 0.010 mol/L and used to prepare standard calibrators in DMSO solution. 500.0 μM, 250.0 μM, 125.0 μM, 62.5 μM, 31.2 μM, and 15.6 μM standards were prepared in a Greiner UV-Star clear V-bottom 96-well plate (Greiner-Bio One, Germany) for generating a standard curve. Using Alfa Aesar's Sodium phosphate, 0.2 M buffer solution, pH 7.4 (Alfa Aesar, Haverhill, Mass., USA), aqueous phosphate buffered saline (PBS) was prepared by diluting with Milli-Q water for a final concentration of 0.05 M. The pH of the solution was adjusted to 7.4±0.1 using 0.1 M hydrochloric acid (Fisher Scientific Waltham, Mass., USA) or 0.1 M aqueous sodium hydroxide (Fisher Scientific Waltham, Mass., USA).
# 10 μL of 0.010 mol/L DMSO test compound stock solutions were pipetted to separate 1.5 mL centrifuge tubes in triplicate. To these tubes, 190 μl of 0.05 M PBS was added. Each tube was gently vortexed for 5 sec. The tubes were shaken for a minimum of 24 h at approximately 25° C. After shaking, the solutions were transferred to 0.5 mL centrifuge filter tubes (MilliporeSigma, Burlington, Mass., USA) and centrifuged at 10,000 rpm for 5 min. After centrifugation, supernatants were collected and used for compound concentration analysis.
# Compound concentrations in each solution were determined using high pressure liquid chromatography (HPLC) with ultraviolet (UV) detection and comparison with external standards. For HPLC, a Waters Acquity CSH Phenyl-Hexyl column (2.1 mm×50 mm, 1.7 μm) was used together with a generic gradient method on a Waters H-class system equipped with a diode array detector: Solvent A=0.1% formic acid in water, Solvent B=0.1% formic acid in acetonitrile (MilliporeSigma, Burlington, Mass., USA), flow=0.65 mL/min, (t=0 min: 95% A-5% B, t=4.75 min: 0% A-100% B, t=4.85 min: 0% A-100% B, t=4.86 min: 95% A-5% B, t=5 min: 95% A-5% B). UV quantifications were performed at 270 nm. Solution concentrations were calculated using Microsoft Excel.
row,Structure (SMILES),solubility kinetic
1,CCCCCOc1cc(N2CCCN(Cc3ccc(CC(=O)N4CCN=C(N(C)C)C4)cc3OC)C2=O)ccc1OC [CU0173],368 µM
2,CCCCCOc1cc(N2CCCN(Cc3ccc(CC(=O)N4CCO[C@H](CN(C)C)C4)cc3OC)C2=O)ccc1OC (stereo in doubt) [CU0187],417 µM

# Target: T1, Human C5
# Assay: Red blood cell (RBC) hemolysis assay, luminescent (Example 28, Table 32)
# Assay type: cell-based
# Conditions: sheep EA cells, 1.5% C5-depleted human serum, 0.5 nM human C5, 1 hour at 37° C., luminescence (Table 32)
row,Structure (SMILES),pIC50
1,CCCCCOc1cc(N2C[C@H](C(N)=O)CN(Cc3cc(F)ccc3OC)C2=O)ccc1OC [SC0215],7.73
2,CCCCCOc1cc(N2CC(CO)CN(Cc3ccc(CNC(C)=O)cc3OC)C2=O)ccc1OC (centres unmarked) [SC0189],8.15
3,CCN1CC[C@@H](NC(=O)Cc2ccc(CN3C(=O)N(c4ccc(OC)c(OCCCC5CC5)c4)CC[C@@H]3C)c(OC)c2)C1 [SC0126],8.80
4,COc1cc(CCO)ccc1CN1C(=O)N(c2ccc(OC)c(OCCCC3CC3)c2)CC[C@@H]1C [SC0180],8.31
5,CCCCCOc1cc(N2CC[C@H](C)N(Cc3cccc4c3c(Cl)c(Cl)n4CC(=O)N(C)C)C2=O)ccc1OC [SC0181],8.29
6,CCCCCOc1cc(N2CC[C@H](C)N(Cc3ccnc4c3c(Cl)cn4C3COC3)C2=O)ccc1OC [SC0151],8.66
7,COc1cc(CC(=O)N[C@@H]2CCNC2)ccc1CN1C(=O)N(c2ccc(OC)c(OCCCC3CC3)c2)CC[C@@H]1C [SC0166],8.51
8,CCCCCOc1cc(N2CC[C@H](C)N(Cc3ccc(CC(=O)N(C)C)cc3OC)C2=O)ccc1OC [SC0173],8.38
9,COc1cc(CC(=O)N[C@@H]2CN(C(=O)OC(C)(C)C)C[C@@H]2F)ccc1CN1C(=O)N(c2ccc(OC)c(OCCCC3CC3)c2)CC[C@@H]1C [SC0185],8.24
10,COc1cc(CC(=O)N[C@H]2CCN(C(=O)OC(C)(C)C)C2)ccc1CN1C(=O)N(c2ccc(OC)c(OCCCC3CC3)c2)CC[C@@H]1C [SC0216],7.71
11,CCCCCOc1cc(N2CC[C@@H](C)N(Cc3cccc4[nH]ccc34)C2=O)ccc1OC [SC0214],7.74
12,COc1cc(CC(=O)N(C)[C@H]2CCN(CCF)C2)ccc1CN1C(=O)N(c2ccc(OC)c(OCCCC3CC3)c2)CC[C@@H]1C [SC0165],8.52
13,CCCCCOc1cc(N2CC[C@H](C)N(Cc3ccnc4c3c(Cl)cn4CCOCCOCCOC)C2=O)ccc1OC [SC0131],8.77
14,COc1cc(CC(=O)N[C@@H]2CN(CCO)C[C@@H]2F)ccc1CN1C(=O)N(c2ccc(OC)c(OCCCC3CC3)c2)CC[C@@H]1C [SC0136],8.74
15,COc1cc(CCN2CCOCC2)ccc1CN1C(=O)N(c2ccc(OC)c(OCCCC3CC3)c2)CC[C@@H]1C [SC0182],8.28
16,COc1ccc(N2CC[C@H](C)N(Cc3ccnc4c3ccn4CC(=O)N(C)C)C2=O)cc1OCCCC1CC1 [SC0208],7.90
17,COc1cc(CC(=O)N2CCOCC2)ccc1CN1C(=O)N(c2ccc(OC)c(OCCCC3CC3)c2)CC[C@@H]1C [SC0139],8.72

row,Structure (SMILES),pIC50
1,CCCCCOc1cc(N2C[C@H](C)CN(Cc3ccc(CC(=O)N4CCCC4)cc3OC)C2=O)ccc1OC [SC0207],7.93
2,C=C1CN(Cc2ccc(C#N)cc2OC)C(=O)N(c2ccc(OC)c(OCCCCC)c2)C1 [SC0226],6.88
3,COc1cc(CC(=O)N2CCNC(=O)C2)ccc1CN1C(=O)N(c2ccc(OC)c(OCCCC3CC3)c2)CC[C@@H]1C [SC0118],8.85
4,COc1ccc(N2CC[C@H](C)N(Cc3cccc4c3ccn4CC(=O)N(C)C)C2=O)cc1OCCCCC1CC1 [SC0203],7.99
5,COc1ccc(N2CC[C@H](C)N(Cc3cccc4c3ccn4S(=O)(=O)c3ccc(C)cc3)C2=O)cc1OCCCC1CC1 [SC0225],6.96
6,CCCCCOc1cc(N2CC[C@@H](C)NC2=O)ccc1OC [SC0231],5.58
7,CCCCCOc1cc(N2CC[C@H](C)N(Cc3cccc4c3cc(C)n4CC(=O)N(C)C)C2=O)ccc1OC [SC0218],7.46
8,CCCCCOc1cc(N2CC[C@@H](C)N(Cc3cccc4c3ccn4CC(=O)O)C2=O)ccc1OC [SC0227],6.87
9,COc1cc(Cc2ncccn2)ccc1CN1C(=O)N(c2ccc(OC)c(OCCCC3CC3)c2)CC[C@@H]1C [SC0157],8.59
10,CCCCCOc1cc(N2C[C@@H](C(=O)NC)CN(Cc3cc(F)ccc3OC)C2=O)ccc1OC [SC0223],7.01
11,CCCCCOc1cc(N2C[C@@H](C)CN(Cc3ccc(CC(=O)N4CCOCC4)cc3OC)C2=O)ccc1OC [SC0201],8.00
12,CCCCCOc1cc(N2CC(C)CN(Cc3ccc(CNC(C)=O)cc3OC)C2=O)ccc1OC (centres unmarked) [SC0198],8.01
13,CCCCCOc1cc(N2CC(COCc3ccccc3)CN(Cc3ccc(CC(=O)O)cc3OC)C2=O)ccc1OC (centres unmarked) [SC0229],6.43
14,CCCCCOc1cc(N2CC[C@H](C)N(Cc3ccc(CC(=O)N4CCOC(CN(C)C)C4)cc3OC)C2=O)ccc1OC (some centres unmarked) [SC0153],8.64
15,CCCCCOc1cc(N2CC[C@H](C)N(Cc3ccnc4c3c(Cl)cn4CC(=O)N(C)OC)C2=O)ccc1OC [SC0124],8.80
16,COc1cc(CC(=O)N(C)[C@H]2CCNC2)ccc1CN1C(=O)N(c2ccc(OC)c(OCCCC3CC3)c2)CC[C@@H]1C [SC0161],8.55
17,COc1cc(Cc2cnccn2)ccc1CN1C(=O)N(c2ccc(OC)c(OCCCC3CC3)c2)CC[C@@H]1C [SC0138],8.74

# Target: purified human C5 (Homo sapiens, UniProt P01031)
# Sequence (P01031 19-1676): as above
# Assay: Red blood cell (RBC) hemolysis assay, optical, absorbance 412 nm (Example 10, Table 19)
# Assay type: cell-based
# Conditions: antibody-sensitized sheep erythrocytes, […] human C5 depleted sera, 0.5 nM purified human C5, absorbance 412 nm; read-out: RBC Hemolysis IC50
row,Structure (SMILES),pIC50
1,COc1ccc(NC(=O)N2CCCC2c2ccccc2OC)cc1OCCCC(C)C (centres unmarked) [Compound C5INH-0371],7.17
2,COc1cc(CNC(=O)c2ccccc2)c(NC(=O)NCc2ccnc3[nH]ccc23)cc1OCCCC(C)C [Compound C5INH-0510],6.93
3,COc1ccc(NC(=O)NCc2c(F)cnc3c2ccn3CC(=O)N(C)C)cc1OCCCC(C)C [Compound C5INH-0515],5.80
4,COc1ccc(NC(=O)NCc2ccnc3c2ccn3Cc2ccncc2)cc1OCCCC(C)C [Compound C5INH-0540],6.36
5,COc1ccc(NC(=O)NC(C(=O)NO)c2cccc(OC)c2O)cc1OCCCC(C)C (centres unmarked) [Compound C5INH-0512],7.38
6,COc1ccc(NC(=O)NCc2ccnc3c2ccn3CC(=O)N2CCCCC2)cc1OCCCC(C)C [Compound C5INH-0507],6.73
7,CNC(=O)c1cccc(CNC(=O)Nc2ccc(OC)c(OCCCC(C)C)c2)c1 [Compound C5INH-0319],6.10
8,COc1ccc(NC(=O)NCc2cccc3c2OCCO3)cc1OCCCC(C)C [Compound C5INH-0543],6.43
9,COc1ccc(OCCCC(C)C)cc1NC(=O)NC(CO)c1ccccc1 (centres unmarked) [Compound C5INH-0487],6.08
10,COc1ccc(NC(=O)NCc2ccnc(NCCCN(C)C)c2OC)cc1OCCCC(C)C [Compound C5INH-0532],6.66
11,COc1ccc(N)cc1CNC(=O)Nc1ccc(OC)c(OCCCC(C)C)c1 [Compound C5INH-0321],7.21
12,COc1ccc(NC(=O)NCc2ccc(CN3CCN(C)CC3)cc2)cc1OCCCC(C)C [Compound C5INH-0324],6.26
13,COc1ccc(NC(=O)NCc2ccnc3c2ccn3CCN2CCCS2(=O)=O)cc1OCCCC(C)C [Compound C5INH-0411],6.21
14,COc1ccc(NC(=O)CN2CCOCC2)cc1CNC(=O)Nc1ccc(OC)c(OCCCC(C)C)c1 [Compound C5INH-0533],6.17
15,COc1ccc(NC(=O)NCc2ccnc3c2ccn3CCN2CCOCC2)cc1OCCCC(C)C [Compound C5INH-0370],6.68
16,COc1ccc(NC(=O)NCc2ccnc3c2ccn3CC(=O)N2CCOCC2)cc1OCCCC(C)C [Compound C5INH-0508],7.14
17,COc1ccc(NC(=O)Nc2ccc3cc[nH]c3c2)cc1OCCCC(C)C [Compound C5INH-0513],5.48
18,COc1cc(CNC(=O)C(C)(C)C)c(NC(=O)NCc2ccnc3[nH]ccc23)cc1OCCCC(C)C [Compound C5INH-0509],6.54
19,COc1ccc(NC(=O)NCc2cccc3cn[nH]c23)cc1OCCCC(C)C [Compound C5INH-0448],5.37
20,COc1ccc(NC(=O)NCc2cccc3ccsc23)cc1OCCCC(C)C [Compound C5INH-0294],6.46
21,COc1ccc(NC(=O)NCc2ccnc3c2ccn3CCC(=O)O)cc1OCCCC(C)C [Compound C5INH-0399],6.21

# Source: patent publication US20230115176A1 (Ra Pharmaceuticals, Inc., priority 2019, published 2023)
